Values joined by “and” are separate entries in the source; they are usually repeats but may differ in a detail not shown here. Equal values may be shown once. Toxic doses and inconclusive results are not listed.
System: BDF1 mice, P388 leukemia ip, median survival T/C
Assay: NCI In Vivo Anticancer Drug Screen. Data for tumor model P388 Leukemia (intraperitoneal) in B6D2F1 (BDF1) mice
Settings: endpoint: median survival time, higher = longer survival
Method in brief: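 T/C = treated-group survival ÷ vehicle-control survival; tumour transplanted into mice before dosing.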

[1] = dose: 50.0 mg/kg/injection, schedule: Q01DX009 (ip), vehicle: saline with Tween-80
[2] = dose: 100.0 mg/kg/injection, schedule: Q01DX009 (ip), vehicle: saline with Tween-80
[3] = dose: 100.0 mg/kg/injection, schedule: Q04DX003 (ip), vehicle: saline with Tween-80
[4] = dose: 200.0 mg/kg/injection, schedule: Q04DX003 (ip), vehicle: saline with Tween-80
[5] = dose: 400.0 mg/kg/injection, schedule: Q04DX003 (ip), vehicle: saline with Tween-80
[6] = dose: 200.0 mg/kg/injection, schedule: Q01DX009 (ip), vehicle: saline with Tween-80
[7] = dose: 25.0 mg/kg/injection, schedule: Q01DX009 (ip), vehicle: saline with Tween-80
[8] = dose: 12.5 mg/kg/injection, schedule: Q01DX009 (ip), vehicle: saline with Tween-80
[9] = dose: 400.0 mg/kg/injection, schedule: Q01DX009 (ip), vehicle: saline with Tween-80
[10] = dose: 50.0 mg/kg/injection, schedule: Q01DX009 (ip), vehicle: Klucel (hydroxypropylcellulose) (HPC)
[11] = dose: 50.0 mg/kg/injection, schedule: Q04DX003 (ip), vehicle: saline sonified

CC(NCCCSc1ccccc1)C(O)c1ccc(O)cc1 (stereo unspecified)
T/C [1]: 99 % of control and 100 % of control and 105 % of control | T/C [2]: 110 % of control and 114 % of control and 119 % of control

C/C(=C1/c2ccccc2-c2n[nH]c(C)c21)S(=O)(=O)O
T/C [3]: 104 % of control | T/C [4]: 100 % of control | T/C [5]: 100 % of control

CCOCCOC(=O)Nc1ccc(C)c(NC(=O)OCCOCC)c1
T/C [1]: 93 % of control | T/C [2]: 90 % of control | T/C [6]: 100 % of control

c1ccc(Sc2c(Sc3ccccc3)c(Sc3ccccc3)c(Sc3ccccc3)c(Sc3ccccc3)c2Sc2ccccc2)cc1
T/C [3]: 99 % of control | T/C [4]: 101 % of control | T/C [5]: 90 % of control

O=C(NC(=O)c1c(F)cccc1F)Nc1ncc(Br)cc1Br
T/C [7]: 90 % of control | T/C [1]: 97 % of control | T/C [2]: 96 % of control

CCN(CC)C(=O)c1ccc(C(Cl)(Cl)Cl)cc1
T/C [8]: 102 % of control | T/C [1]: 100 % of control and 109 % of control and 120 % of control | T/C [2]: 100 % of control (2×) and 104 % of control | T/C (dose: 100.0 mg/kg/injection, schedule: Q04DX003 (ip), vehicle: Klucel (hydroxypropylcellulose) (HPC)): 100 % of control | T/C (dose: 176.0 mg/kg/injection, schedule: Q04DX003 (ip), vehicle: saline sonified): 104 % of control | T/C [6]: 112 % of control | T/C (dose: 200.0 mg/kg/injection, schedule: Q04DX003 (ip), vehicle: Klucel (hydroxypropylcellulose) (HPC)): 95 % of control | T/C (dose: 264.0 mg/kg/injection, schedule: Q04DX003 (ip), vehicle: saline sonified): 104 % of control | T/C [9]: 109 % of control

CSc1cccc(NC(=O)Oc2cc(C)c(Cl)c(C)c2Cl)c1
T/C (dose: 6.25 mg/kg/injection, schedule: Q01DX009 (ip), vehicle: DMSO): 117 % of control | T/C (dose: 12.5 mg/kg/injection, schedule: Q01DX009 (ip), vehicle: DMSO): 102 % of control

C=C(C)C1CCC2=CC(CC3(C)OC3C3=CC(C(=O)OC)=C(C1)O3)OC2=O (stereo unspecified)
T/C [10]: 86 % of control

CCC(C)C(NS(=O)(=O)c1ccc(C)cc1)C(=O)O (stereo unspecified)
T/C (dose: 50.0 mg/kg/injection, schedule: Q01DX005 (ip), vehicle: saline with Tween-80): 96 % of control | T/C (dose: 100.0 mg/kg/injection, schedule: Q01DX005 (ip), vehicle: saline with Tween-80): 102 % of control | T/C (dose: 200.0 mg/kg/injection, schedule: Q01DX005 (ip), vehicle: saline with Tween-80): 112 % of control

CN(C)c1ccc2cc3ccc(N(C)C)cc3nc2c1
T/C (dose: 3.12 mg/kg/injection, schedule: Q04DX003 (ip), vehicle: water): 93 % of control | T/C (dose: 6.25 mg/kg/injection, schedule: Q04DX003 (ip), vehicle: water): 106 % of control | T/C (dose: 12.5 mg/kg/injection, schedule: Q04DX003 (ip), vehicle: water): 99 % of control | T/C (dose: 25.0 mg/kg/injection, schedule: Q04DX003 (ip), vehicle: water): 109 % of control | T/C (dose: 50.0 mg/kg/injection, schedule: Q04DX003 (ip), vehicle: water): 115 % of control

O=S1(=O)C=C(c2ccccc2)C(c2ccccc2)=C1
T/C (dose: 22.0 mg/kg/injection, schedule: Q04DX003 (ip), vehicle: saline): 104 % of control | T/C (dose: 33.0 mg/kg/injection, schedule: Q04DX003 (ip), vehicle: saline): 113 % of control | T/C [11]: 118 % of control | T/C (dose: 75.0 mg/kg/injection, schedule: Q04DX003 (ip), vehicle: saline sonified): 150 % of control | T/C (dose: 75.0 mg/kg/injection, schedule: Q04DX003 (ip), vehicle: saline): 122 % of control

CCCCC(=O)/C=C/c1ccccc1
T/C [1]: 102 % of control | T/C [2]: 109 % of control | T/C [6]: 120 % of control

COc1cc2cc3c4cc(OC)c(OC)cc4cc[n+]3cc2cc1OC
T/C (dose: 5.0 mg/kg/injection, schedule: Q01DX009 (ip), vehicle: saline with Tween-80): 109 % of control | T/C (dose: 10.0 mg/kg/injection, schedule: Q01DX009 (ip), vehicle: saline with Tween-80): 118 % of control | T/C (dose: 40.0 mg/kg/injection, schedule: Q01DX009 (ip), vehicle: saline with Tween-80): 159 % of control | T/C (dose: 40.0 mg/kg/injection, schedule: Q04DX003 (ip), vehicle: saline): 163 % of control | T/C (dose: 80.0 mg/kg/injection, schedule: Q04DX003 (ip), vehicle: saline): 174 % of control | T/C (dose: 160.0 mg/kg/injection, schedule: Q01DX009 (ip), vehicle: saline with Tween-80): 154 % of control | T/C (dose: 160.0 mg/kg/injection, schedule: Q04DX003 (ip), vehicle: saline with Tween-80): 154 % of control | T/C (dose: 160.0 mg/kg/injection, schedule: Q04DX003 (ip), vehicle: saline): 166 % of control | T/C (dose: 320.0 mg/kg/injection, schedule: Q04DX003 (ip), vehicle: saline with Tween-80): 122 % of control | T/C (dose: 320.0 mg/kg/injection, schedule: Q04DX003 (ip), vehicle: saline): 120 % of control

Nc1nc2c(ncn2C2CC(O)C(CO)O2)c(=O)n1N (stereo unspecified)
T/C [8]: 97 % of control | T/C [7]: 111 % of control | T/C [1]: 108 % of control | T/C [2]: 101 % of control

CCOC(=O)c1c(C)cc(C)nc1[S][Sn]([Br])([Br])[S]c1nc(C)cc(C)c1C(=O)OCC
T/C [1]: 97 % of control | T/C [2]: 103 % of control | T/C [6]: 106 % of control

CN1CCN(C(=O)Nc2ccc(N=Nc3ccccc3)cc2)CC1
T/C (dose: 4.16 mg/kg/injection, schedule: Q01DX009 (ip), vehicle: saline with Tween-80): 100 % of control | T/C (dose: 6.25 mg/kg/injection, schedule: Q01DX009 (ip), vehicle: saline with Tween-80): 90 % of control | T/C (dose: 9.38 mg/kg/injection, schedule: Q01DX009 (ip), vehicle: saline with Tween-80): 90 % of control | T/C [11]: 95 % of control | T/C (dose: 100.0 mg/kg/injection, schedule: Q04DX003 (ip), vehicle: saline sonified): 100 % of control

COC(=O)C1C2CC[N+]3(CCCCC13)O2 (stereo unspecified)
T/C (dose: 3.13 mg/kg/injection, schedule: Q01DX009 (ip), vehicle: saline): 100 % of control | T/C (dose: 6.25 mg/kg/injection, schedule: Q01DX009 (ip), vehicle: saline): 100 % of control | T/C (dose: 12.5 mg/kg/injection, schedule: Q01DX009 (ip), vehicle: saline): 93 % of control and 109 % of control | T/C (dose: 50.0 mg/kg/injection, schedule: Q01DX009 (ip), vehicle: saline): 105 % of control

O=C(/C=C/c1ccc(F)cc1)c1ccc(Cl)cc1
T/C [2]: 90 % of control | T/C [6]: 90 % of control | T/C [9]: 100 % of control

COc1cc(C=Nc2cc(Cl)cc(Cl)c2)ccc1N(CCCl)CCCl
T/C (dose: 132.0 mg/kg/injection, schedule: Q04DX003 (ip), vehicle: saline with Tween-80): 163 % of control | T/C [4]: 177 % of control | T/C (dose: 300.0 mg/kg/injection, schedule: Q04DX003 (ip), vehicle: saline with Tween-80): 177 % of control

CN(CO)c1nc(N(C)CO)nc(N(C)CO)n1
T/C (dose: 12.5 mg/kg/injection, schedule: Q01DX005 (ip), vehicle: saline): 104 % of control | T/C (dose: 25.0 mg/kg/injection, schedule: Q01DX005 (ip), vehicle: saline): 113 % of control | T/C (dose: 100.0 mg/kg/injection, schedule: Q01DX005 (ip), vehicle: saline): 155 % of control

Clc1ccc(COC(Cn2ccnc2)c2ccc(Cl)cc2Cl)c(Cl)c1 (stereo unspecified)
T/C (dose: 18.7 mg/kg/injection, schedule: Q01DX009 (ip), vehicle: saline with Tween-80): 118 % of control | T/C (dose: 75.0 mg/kg/injection, schedule: Q01DX009 (ip), vehicle: saline with Tween-80): 118 % of control | T/C [6]: 108 % of control | T/C [9]: 108 % of control

N#CCc1cnc2nc(N)nc(N)c2n1
T/C (dose: 3.13 mg/kg/injection, schedule: Q01DX009 (ip), vehicle: other): 102 % of control | T/C (dose: 6.25 mg/kg/injection, schedule: Q01DX009 (ip), vehicle: other): 98 % of control | T/C (dose: 12.5 mg/kg/injection, schedule: Q01DX009 (ip), vehicle: other): 107 % of control | T/C (dose: 25.0 mg/kg/injection, schedule: Q01DX009 (ip), vehicle: other): 107 % of control

COc1ccccc1C(=O)NS(=O)(=O)c1ccc(Cl)cc1
T/C [10]: 105 % of control | T/C (dose: 100.0 mg/kg/injection, schedule: Q01DX009 (ip), vehicle: Klucel (hydroxypropylcellulose) (HPC)): 110 % of control | T/C (dose: 200.0 mg/kg/injection, schedule: Q01DX009 (ip), vehicle: Klucel (hydroxypropylcellulose) (HPC)): 120 % of control

O=C(O)CC/C(=N\O)c1cccc([N+](=O)[O-])c1
T/C [3]: 100 % of control | T/C [4]: 100 % of control | T/C [5]: 95 % of control

Reference: PubChem BioAssay AID328 (DTP/NCI, 2004)
